{
  "source": "patent US10994013B2",
  "about": "“Solid dosage form containing arabinogalactan” (TEMPLE UNIVERSITY—OF THE COMMONWEALTH SYSTEM OF HIGHER …, priority 2013, dated 2021)",
  "key": {"[1]": {"assay": "Equilibrium solubility of drug in polymer solution in 0.1N HCl", "type": "physicochemical", "details": "for solubility thermodynamic at 72 h: 0.1 N HCl without polymer, simulated gastric fluid, thermodynamic from solid, 0.1 N HCl, 37 C, no polymer, read-out: saturation / equilibrium solubility of neat drug; for fold increase in drug solubility in the presence of AGF polymer: AGF dissolved in 0.1N HCl, 0% to 3%, ITRA and KETO at 3%", "experimental": "Anal. Chem. Instrum. […] An excess of IBU (200 mg) was added to 10 ml of polymer solution in 0.1N HCl in a stoppered glass vial and was bath sonicated for 30 minutes. The polymer concentrations ranged from 0% to 3% (0 mg/ml to 30 mg/ml). The vials were kept in a shaking water bath at 37 C and at 50 rpm for 72 hours to obtain equilibrium. After 72 hours the shaker was turned off and the samples were kept at a standstill at 37 C for 3 hours to settle the undissolved drug at the bottom of the glass vials. The supernatant was filtered using a 0.45 micron filter.\nFor an equilibrium study of itraconazole, 50 mg itraconazole (ITRA) was added to 20 ml of AGF polymer solution in 0.1 N HCl."}, "[2]": {"assay": "In vitro drug dissolution, USP basket method, 0.1 N HCl", "type": "physicochemical", "details": "for % drug release at 15 minutes / % drug release at 30 minutes / % drug release at 120 minutes: 0.1N HCl, AGF formulations", "experimental": "(§1) The in vitro drug dissolution rates of the dosage forms listed in Table 4 below were determined by the USP basked method (270 mesh, 53 micron pore size). The Van Kel VK7010 dissolution system was employed. 900 ml of 0.1 N HCl at 37° C. was used as a dissolution medium. The media was selected to mimic gastric pH and to allow greater discrimination of ibuprofen dissolution profiles due to formulation and processing effects. The dissolution experiment was run at 100 rpm. Each sample contained a dosage form equivalent to 25 mg of ibuprofen to maintain the non sink conditions, i.e. to employ a volume of medium (900 ml in this case) that is less than the volume of medium required for sink conditions, which is three times that required in order to form a saturated solution of drug. In vitro dissolution of 25 mg of neat ibuprofen was used as a control. At appropriate time intervals, samples were collected and replaced by fresh media. Each sample was filtered and the drug was analyzed using Agilent/HP 8453 UV-Vis spectrophotometer (λmx=222 nm). The experiment was conducted in triplicate. T50 (time for 50% drug release), T60 (time for 60% drug release), and T80 (time for 80% drug release) was recorded directly from the dissolution profiles.\nas §1, with “PMs and MSDs made with ibuprofen and AGF or HPMCK3” for “the dosage forms listed in Table 4 below”, “contained an MSD or” for “contained”, “PM” for “dosage form”\nIn vitro basket dissolution was carried out on SDM and PM formulations as described in Example 3. Each sample of ITRA AGF SDM contained an amount equivalent to 25 mg of ITRA to maintain the non sink conditions. ITRA was analyzed using an Agilent/HP 8453 UV-Vis spectrophotometer (λmax=257 nm).\nUV analysis was conducted at λmax=260 nm.\nThe degree of similarity between the dissolution profiles was calculated using the following equation from Moore and Flanner, 1996, Pharm. Tech. 20:64-74, and using data points up to 85% drug release (Shah et al., 1998, Pharm. Res. 15:889-896):\nTwo dissolution profiles would be deemed similar if the average difference between the reference and the test assay at the same time point were less than 10%. The similarity factor value would then not be less than 50%."}, "[3]": {"assay": "Physical stability: XRPD RDC at accelerated storage conditions", "type": "physicochemical", "details": "IBU as reference, 2θ of 22.4°", "experimental": "The RDC was measured by XRPD as described above for the dosage forms listed in Table 22 at various accelerated storage conditions. Batches of IBU AGF SDM, IBU HPMCK3 SDM, IBU HPMCK3 MSD and IBU AGF MSD at 10% drug load and 20% drug load were prepared as described above. In addition, 10% IBU AGF MSD and 10% IBU AGF SDM batches were prepared with 0.02% butylated hydroxytoluene (BHT), an antioxidant. […] 60% relative humidity and 40° C. […] These findings were confirmed by DSC (not shown)."}, "[4]": {"details": "cited from earlier work"}, "[5]": {"assay": "Relative degree of crystallinity (RDC) by XRPD", "type": "physicochemical", "details": "at 10% DL SD with AGF", "experimental": "The term “relative degree of crystallinity (RDC),” as used herein is the degree of crystallinity of the therapeutic agent in the dosage form relative to the degree of crystallinity of the neat therapeutic agent. RDC is calculated using the following formula: RDC=I sample/I therapeutic agent I sample: peak height of the formulation under investigation at a chosen angle (2θ) I therapeutic agent: peak height of the neat therapeutic agent at the same angle that was chosen for the sample (2θ)\nPowder X-ray diffraction of the ibuprofen-arabinogalactan MSDs was carried out to determine the crystallinity of the ibuprofen. Powder samples ([…]) were placed on a sample holder and the diffractograms were collected using a Bruker D8 diffractometer (Madison, Wis.) with Cu Kα radiation. The voltage of 40 kV was used and the current was 40 mA. The samples were scanned from 2 θ to 40 θ at a rate of 2 θ/minute. The data analysis was done using Bruker-AXs EVA software (version 15.0).\nXRPD were collected using Rigaku D-Max B X-ray Diffractometer (Tokyo, Japan). The powder sample size of 0.5 gram was used and samples were run at 35 kV at 15 mA and […]. JADE software (version 9) was used to process, acquire and analyze the data."}},
  "note": "Read-outs that look alike come from different tables or passages of the source.",
  "data": [
    {"smiles": "CC(C)Cc1ccc(C(C)C(=O)O)cc1", "note": "(stereo not shown) [IBU, Ibuprofen]", "values": [
      {"measurement": "solubility thermodynamic at 72 h", "setting": "[1]", "result": 37, "unit": "µg/mL"},
      {"measurement": "fold increase in drug solubility in the presence of AGF polymer", "setting": "[1]", "result": 7.3, "unit": "fold"},
      {"measurement": "IBU solubility with increasing HPMCK3 concentration", "setting": "[1]; control polymer HPMCK3 in 0.1N HCl", "result": "did not enhance the solubility"},
      {"measurement": "% drug release at 15 minutes", "setting": "[2]", "result": 8, "unit": "%"},
      {"measurement": "% drug release at 30 minutes", "setting": "[2]", "result": 27, "unit": "%"},
      {"measurement": "% drug release at 120 minutes", "setting": "[2]", "result": 41, "unit": "%"},
      {"measurement": "T60 (time for 60% drug release)", "setting": "[2]; 900 ml 0.1 N HCl, 37° C., 100 rpm, 25 mg ibuprofen, non sink", "result": 300, "unit": "min"},
      {"measurement": "XRPD RDC, 25° C. and 0% relative humidity (6 Months)", "setting": "[3]", "result": 1},
      {"measurement": "XRPD RDC, 25° C. and 60% relative humidity (6 Months)", "setting": "[3]", "result": 1},
      {"measurement": "XRPD RDC, 40° C. and 0% relative humidity (3 Months)", "setting": "[3]", "result": 1},
      {"measurement": "XRPD RDC, 40° C. and 75% relative humidity (3 Months)", "setting": "[3]", "result": 1},
      {"measurement": "XRPD RDC, INITIAL", "setting": "[3]", "result": 1}
    ]},
    {"smiles": "COCCOC(=O)C1=C(C)NC(C)=C(C(=O)OC(C)C)C1c1cccc([N+](=O)[O-])c1", "note": "(stereo not shown) [NIMO, nimodipine]", "values": [
      {"measurement": "Solubility", "setting": "[4]", "result": 2299, "unit": "µg/mL"}
    ]},
    {"smiles": "CC(C(=O)O)c1cccc(Oc2ccccc2)c1", "note": "(stereo not shown) [Fenoprofen, fenoprofen]", "values": [
      {"measurement": "RDC value", "setting": "[5]", "result": 0.125},
      {"measurement": "Solubility", "setting": "[4]; for its calcium salt", "result": "<<<<<<2500 μg/ml"}
    ]},
    {"smiles": "CC(C(=O)O)c1cccc(C(=O)c2ccccc2)c1", "note": "(stereo not shown) [KETO, Ketoprofen]", "values": [
      {"measurement": "% drug release at 15 minutes", "setting": "[2]", "result": 1.8, "unit": "%"},
      {"measurement": "% drug release at 30 minutes", "setting": "[2]", "result": 3.3, "unit": "%"},
      {"measurement": "% drug release at 120 minutes", "setting": "[2]", "result": 8.4, "unit": "%"}
    ]},
    {"smiles": "CCC(C)n1ncn(-c2ccc(N3CCN(c4ccc(OCC5COC(Cn6cncn6)(c6ccc(Cl)cc6Cl)O5)cc4)CC3)cc2)c1=O", "note": "(stereo not shown) [ITRA, Itraconazole]", "values": [
      {"measurement": "solubility thermodynamic at 72 h", "setting": "[1]", "result": 5720, "unit": "µg/mL"},
      {"measurement": "fold increase in drug solubility in the presence of AGF polymer", "setting": "[1]", "result": 16, "unit": "fold"}
    ]},
    {"smiles": "CC(=O)N1CCN(c2ccc(OC[C@H]3CO[C@](Cn4ccnc4)(c4ccc(Cl)cc4Cl)O3)cc2)CC1", "note": "(racemic) [KETOC, ketoconazole]", "values": [
      {"measurement": "Solubility", "setting": "[4]", "result": 10, "unit": "µg/mL"}
    ]},
    {"smiles": "Clc1ccc(C(Cn2ccnc2)OCc2ccsc2Cl)c(Cl)c1", "note": "(stereo not shown) [TIOCO, tioconazole]", "values": [
      {"measurement": "Solubility", "setting": "[4]", "result": "~2", "unit": "µg/mL"}
    ]},
    {"smiles": "C[C@@H](C(=O)O)c1ccc(-c2ccccc2)c(F)c1", "note": "[FLURBI, flurbiprofen]", "values": [
      {"measurement": "Solubility", "setting": "[4]", "result": 482, "unit": "µg/mL"}
    ]},
    {"smiles": "CC(C)NCC(O)COc1cccc2ccccc12", "note": "(stereo not shown) [PROPFB, propranolol free base]", "values": [
      {"measurement": "Solubility", "setting": "[4]", "result": 120, "unit": "µg/mL"}
    ]},
    {"smiles": "CCCNC(=O)NS(=O)(=O)c1ccc(Cl)cc1", "note": "[CHLOPR, chlorpropamide]", "values": [
      {"measurement": "Solubility", "setting": "[4]; water at pH 6", "result": 2500, "unit": "µg/mL"}
    ]}
  ]
}
